This test concerns the target T1, CruCA4 (Corallium rubrum, UniProt A0A1B0Y987).
T1 construct: gene CA4
Briefly: stopped-flow CO2 hydrase activation assay. In kind it is biochemical. The following applies: activation constant (activator); CO2 1.7-17 mM substrate, pH 7.5, 25 °C, 15 min pre-incubation. The text has this: stopped-flow CO2 hydrase activation assay on CruCA4
T1 sequence (A0A1B0Y987 entry or part of it): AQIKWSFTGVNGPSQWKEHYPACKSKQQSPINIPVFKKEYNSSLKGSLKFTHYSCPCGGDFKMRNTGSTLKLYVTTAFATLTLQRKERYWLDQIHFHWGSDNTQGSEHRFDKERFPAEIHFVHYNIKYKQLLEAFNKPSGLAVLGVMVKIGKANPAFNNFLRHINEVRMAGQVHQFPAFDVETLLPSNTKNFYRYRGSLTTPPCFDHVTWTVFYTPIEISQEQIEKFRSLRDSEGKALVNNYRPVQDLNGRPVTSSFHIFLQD
As for `N[C@@H](Cc1cnc[nH]1)C(=O)O` [compound 1, L-His], the “KA (μM) * / CruCA4 ^b” value stood at 36.9 µM. In the case of `N[C@H](Cc1c[nH]cn1)C(=O)O` [compound 2, D-His], the “KA (μM) * / CruCA4 ^b” value turned out to be 0.098 µM.

As to `N[C@H](Cc1ccccc1)C(=O)O` [compound 4, D-Phe], the “KA (μM) * / CruCA4 ^b” value turned out to be 1.01 µM. `N[C@@H](Cc1ccc(O)c(O)c1)C(=O)O` [compound 5, L-DOPA]: the “KA (μM) * / CruCA4 ^b” value is 13.7 µM. As for `N[C@H](Cc1ccc(O)c(O)c1)C(=O)O` [compound 6, D-DOPA], the “KA (μM) * / CruCA4 ^b” value was 0.93 µM. The figure for `N[C@@H](Cc1c[nH]c2ccccc12)C(=O)O` [compound 7, L-Trp] is 9.48 µM. `N[C@H](Cc1c[nH]c2ccccc12)C(=O)O` [compound 8, D-Trp]: the “KA (μM) * / CruCA4 ^b” value was determined as 8.35 µM. As for `Nc1ccc(C[C@H](N)C(=O)O)cc1` [compound 11, 4-H2N-L-Phe], the “KA (μM) * / CruCA4 ^b” value was 0.074 µM.

For the compound `NCc1ccccn1` [compound 15, 2-Pyridyl-methylamine], the “KA (μM) * / CruCA4 ^b” value was determined as 0.41 µM. The figure for `NCCN1CCNCC1` [compound 17, 1-(2-Aminoethyl)-piperazine] is 0.004 µM; for `NCCN1CCOCC1` [compound 18, 4-(2-Aminoethyl)-morpholine] it is 0.15 µM.

(Values after paper PMC6017236, “Activation Profile Analysis of CruCA4, an α-Carbonic Anhydrase Involved in Skeleton Formation of the Mediterranean Red Coral, Corallium rubrum” (Molecules : A Journal of Synthetic Chemistry and Natural …, 2017).)
